# Data as given in patent US7632972B2, “Compounds and methods for treatment of cancer and modulation of programmed cell death for melanoma and other cancer cells” (The Board of Trustees of the University of Illionis, priority 2003, dated 2009).
# Columns and labels:
# [1] = test system: SF-268; experiment: NCI 60 cell line screen (SRB), CNS Cancer; assay type: cell-based, human
# From the text: (§1) The operation of this screen utilizes 60 different human tumor cell lines, representing leukemia, melanoma and cancers of the lung, colon, brain, ovary, breast, prostate, and kidney. The aim is to prioritize for further evaluation, synthetic compounds or natural product samples showing selective growth inhibition or cell killing of particular tumor cell lines. This screen is unique in that the complexity of a 60 cell line dose response produced by a given compound results in a biological response pattern which can be utilized in pattern recognition algorithms. Using these algorithms, it is possible to assign a putative mechanism of action to a test compound, or to determine that the response pattern is unique and not similar to that of any of the standard prototype compounds included in the NCl database (see DTP Overview tab). In addition, following characterization of various cellular molecular targets in the 60 cell lines, it may be possible to select compounds most likely to interact with a specific molecular target.
# (§2) The human tumor cell lines of the cancer screening panel are grown in RPMI 1640 medium containing 5% fetal bovine serum and 2 mM L-glutamine. For a typical screening experiment, cells are inoculated into 96 well microtiter plates in 100 μL at plating densities ranging from 5,000 to 40,000 cells/well depending on the doubling time of individual cell lines. After cell inoculation, the microtiter plates are incubated at 37° C., 5% CO2, 95% air and 100% relative humidity for 24 h prior to addition of experimental drugs.
# (§3) After 24 h, two plates of each cell line are fixed in situ with TCA, to represent a measurement of the cell population for each cell line at the time of drug addition (Tz). Experimental drugs are solubilized in dimethyl sulfoxide at 400-fold the desired final maximum test concentration and stored frozen prior to use. At the time of drug addition, an aliquot of frozen concentrate is thawed and diluted to twice the desired final maximum test concentration with complete medium containing 50 μg/ml gentamicin. Additional four, 10-fold or ½ log serial dilutions are made to provide a total of five drug concentrations plus control. Aliquots of 100 μl of these different drug dilutions are added to the appropriate microtiter wells already containing 100 μl of medium, resulting in the required final drug concentrations.
# (§4) Following drug addition, the plates are incubated for an additional 48 h at 37° C., 5% CO2, 95% air, and 100% relative humidity. For adherent cells, the assay is terminated by the addition of cold TCA. Cells are fixed in situ by the gentle addition of 50 μl of cold 50% (w/v) TCA (final concentration, 10% TCA) and incubated for 60 minutes at 4° C. The supernatant is discarded, and the plates are washed five times with tap water and air dried. Sulforhodamine B (SRB) solution (100 μl) at 0.4% (w/v) in 1% acetic acid is added to each well, and plates are incubated for 10 minutes at room temperature. After staining, unbound dye is removed by washing five times with 1% acetic acid and the plates are air dried. Bound stain is subsequently solubilized with 10 mM trizma base, and the absorbance is read on an automated plate reader at a wavelength of 515 nm. For suspension cells, the methodology is the same except that the assay is terminated by fixing settled cells at the bottom of the wells by gently adding 50 μl of 80% TCA (final concentration, 16% TCA). Using the seven absorbance measurements [time zero, (Tz), control growth, (C), and test growth in the presence of drug at the five concentration levels (Ti)], the percentage growth is calculated at each of the drug concentrations levels. Percentage growth inhibition is calculated as: [(Ti−Tz)/(C−Tz)]×100 for concentrations for which Ti>/=Tz [(Ti−Tz)/Tz]×100 for concentrations for which Ti<Tz.
# (§5) Three dose response parameters are calculated for each experimental agent. […]
# [2] = test system: SNB-19; experiment: NCI 60 cell line screen (SRB), CNS Cancer; assay type: cell-based, human
# From the text: as §1, §2, §3, §4, §5
# [3] = test system: SNB-75; experiment: NCI 60 cell line screen (SRB), CNS Cancer; assay type: cell-based, human
# From the text: as §1, §2, §3, §4, §5
# [4] = test system: IGROV1; experiment: NCI 60 cell line screen (SRB), Ovarian Cancer; assay type: cell-based, human
# From the text: as §1, §2, §3, §4, §5
# [5] = test system: OVCAR-3; experiment: NCI 60 cell line screen (SRB), Ovarian Cancer; assay type: cell-based, human
# From the text: as §1, §2, §3, §4, §5
# [6] = test system: OVCAR-4; experiment: NCI 60 cell line screen (SRB), Ovarian Cancer; assay type: cell-based, human
# From the text: as §1, §2, §3, §4, §5
# [7] = test system: OVCAR-5; experiment: NCI 60 cell line screen (SRB), Ovarian Cancer; assay type: cell-based, human
# From the text: as §1, §2, §3, §4, §5
# [8] = test system: OVCAR-8; experiment: NCI 60 cell line screen (SRB), Ovarian Cancer; assay type: cell-based, human
# From the text: as §1, §2, §3, §4, §5
# [9] = test system: SK-OV-3; experiment: NCI 60 cell line screen (SRB), Ovarian Cancer; assay type: cell-based, human
# From the text: as §1, §2, §3, §4, §5
# [10] = test system: HL-60(TB)
structure (smiles),measurement,setting,value
COc1cccc(CCNC(=O)CC(c2ccccc2)(c2ccccc2)c2ccccc2)c1 [Compound Z3],GI50,[1]; SF-268,15 µM
same,TGI,[1]; SF-268,>1.00E−04
same,Percent Growth,"[1]; SF-268, Log10 Concentration −4.0",38%
same,Percent Growth,"[1]; SF-268, Log10 Concentration −5.0",53%
same,Percent Growth,"[1]; SF-268, Log10 Concentration −6.0",87%
same,Percent Growth,"[1]; SF-268, Log10 Concentration −7.0",97%
same,Percent Growth,"[1]; SF-268, Log10 Concentration −8.0",90%
same,CC50,"[1]; SF-268, read-out: LC50 (the source's name)",> 100 µM
same,GI50,[2]; SNB-19,90.1 µM
same,TGI,[2]; SNB-19,>1.00E−04
same,Percent Growth,"[2]; SNB-19, Log10 Concentration −4.0",48%
same,Percent Growth,"[2]; SNB-19, Log10 Concentration −5.0",92%
same,Percent Growth,"[2]; SNB-19, Log10 Concentration −6.0",92%
same,Percent Growth,"[2]; SNB-19, Log10 Concentration −7.0",107%
same,Percent Growth,"[2]; SNB-19, Log10 Concentration −8.0",97%
same,CC50,"[2]; SNB-19, read-out: LC50 (the source's name)",> 100 µM
same,GI50,[3]; SNB-75,> 100 µM
same,TGI,[3]; SNB-75,>1.00E−04
same,Percent Growth,"[3]; SNB-75, Log10 Concentration −4.0",96%
same,Percent Growth,"[3]; SNB-75, Log10 Concentration −5.0",118%
same,Percent Growth,"[3]; SNB-75, Log10 Concentration −6.0",113%
same,Percent Growth,"[3]; SNB-75, Log10 Concentration −7.0",117%
same,Percent Growth,"[3]; SNB-75, Log10 Concentration −8.0",94%
same,CC50,"[3]; SNB-75, read-out: LC50 (the source's name)",> 100 µM
same,TGI,[4]; IGROV1,>1.00E−04
same,Percent Growth,"[4]; IGROV1, Log10 Concentration −4.0",10%
same,Percent Growth,"[4]; IGROV1, Log10 Concentration −5.0",22%
same,Percent Growth,"[4]; IGROV1, Log10 Concentration −6.0",23%
same,Percent Growth,"[4]; IGROV1, Log10 Concentration −7.0",63%
same,Percent Growth,"[4]; IGROV1, Log10 Concentration −8.0",29%
same,CC50,"[4]; IGROV1, read-out: LC50 (the source's name)",> 100 µM
same,GI50,[5]; OVCAR-3,4.77 µM
same,TGI,[5]; OVCAR-3,>1.00E−04
same,Percent Growth,"[5]; OVCAR-3, Log10 Concentration −4.0",19%
same,Percent Growth,"[5]; OVCAR-3, Log10 Concentration −5.0",40%
same,Percent Growth,"[5]; OVCAR-3, Log10 Concentration −6.0",71%
same,Percent Growth,"[5]; OVCAR-3, Log10 Concentration −7.0",102%
same,Percent Growth,"[5]; OVCAR-3, Log10 Concentration −8.0",90%
same,CC50,"[5]; OVCAR-3, read-out: LC50 (the source's name)",> 100 µM
same,GI50,[6]; OVCAR-4,> 100 µM
same,TGI,[6]; OVCAR-4,>1.00E−04
same,Percent Growth,"[6]; OVCAR-4, Log10 Concentration −4.0",92%
same,Percent Growth,"[6]; OVCAR-4, Log10 Concentration −5.0",80%
same,Percent Growth,"[6]; OVCAR-4, Log10 Concentration −6.0",82%
same,Percent Growth,"[6]; OVCAR-4, Log10 Concentration −7.0",106%
same,Percent Growth,"[6]; OVCAR-4, Log10 Concentration −8.0",92%
same,CC50,"[6]; OVCAR-4, read-out: LC50 (the source's name)",> 100 µM
same,GI50,[7]; OVCAR-5,11.7 µM
same,TGI,[7]; OVCAR-5,>1.00E−04
same,Percent Growth,"[7]; OVCAR-5, Log10 Concentration −4.0",15%
same,Percent Growth,"[7]; OVCAR-5, Log10 Concentration −5.0",53%
same,Percent Growth,"[7]; OVCAR-5, Log10 Concentration −6.0",83%
same,Percent Growth,"[7]; OVCAR-5, Log10 Concentration −7.0",87%
same,Percent Growth,"[7]; OVCAR-5, Log10 Concentration −8.0",90%
same,CC50,"[7]; OVCAR-5, read-out: LC50 (the source's name)",> 100 µM
same,GI50,[8]; OVCAR-8,4.98 µM
same,TGI,[8]; OVCAR-8,4.77E−05
same,Percent Growth,"[8]; OVCAR-8, Log10 Concentration −4.0",−16%
same,Percent Growth,"[8]; OVCAR-8, Log10 Concentration −5.0",33%
same,Percent Growth,"[8]; OVCAR-8, Log10 Concentration −6.0",88%
same,Percent Growth,"[8]; OVCAR-8, Log10 Concentration −7.0",117%
same,Percent Growth,"[8]; OVCAR-8, Log10 Concentration −8.0",116%
same,CC50,"[8]; OVCAR-8, read-out: LC50 (the source's name)",> 100 µM
same,GI50,[9]; SK-OV-3,> 100 µM
same,TGI,[9]; SK-OV-3,>1.00E−04
same,Percent Growth,"[9]; SK-OV-3, Log10 Concentration −4.0",87%
same,Percent Growth,"[9]; SK-OV-3, Log10 Concentration −5.0",84%
same,Percent Growth,"[9]; SK-OV-3, Log10 Concentration −6.0",97%
same,Percent Growth,"[9]; SK-OV-3, Log10 Concentration −7.0",98%
same,Percent Growth,"[9]; SK-OV-3, Log10 Concentration −8.0",92%
same,CC50,"[9]; SK-OV-3, read-out: LC50 (the source's name)",> 100 µM
same,GI50,[10],17.5 µM
same,TGI,[10],>1.00E−04
same,CC50,[10]; read-out: LC50,> 100 µM
